Data taken from BindingDB's records for doi:10.7270/Q2V40ST1 (Burnham Center For Chemical Genomics, 2012).
pIC50: −log10 of the molar value.

Target: Polyadenylate-binding protein 1 (Homo sapiens, UniProt P11940)
Test: MLLE binding blockers, Cy5 peptide tracer – biochemical, fluorescence polarization, Cy5-PAM2 peptide, secondary, miRNA deadenylation inhibitor project, dose response (AID 602260)

Chain of Polyadenylate-binding protein 1 (P11940 whole entry): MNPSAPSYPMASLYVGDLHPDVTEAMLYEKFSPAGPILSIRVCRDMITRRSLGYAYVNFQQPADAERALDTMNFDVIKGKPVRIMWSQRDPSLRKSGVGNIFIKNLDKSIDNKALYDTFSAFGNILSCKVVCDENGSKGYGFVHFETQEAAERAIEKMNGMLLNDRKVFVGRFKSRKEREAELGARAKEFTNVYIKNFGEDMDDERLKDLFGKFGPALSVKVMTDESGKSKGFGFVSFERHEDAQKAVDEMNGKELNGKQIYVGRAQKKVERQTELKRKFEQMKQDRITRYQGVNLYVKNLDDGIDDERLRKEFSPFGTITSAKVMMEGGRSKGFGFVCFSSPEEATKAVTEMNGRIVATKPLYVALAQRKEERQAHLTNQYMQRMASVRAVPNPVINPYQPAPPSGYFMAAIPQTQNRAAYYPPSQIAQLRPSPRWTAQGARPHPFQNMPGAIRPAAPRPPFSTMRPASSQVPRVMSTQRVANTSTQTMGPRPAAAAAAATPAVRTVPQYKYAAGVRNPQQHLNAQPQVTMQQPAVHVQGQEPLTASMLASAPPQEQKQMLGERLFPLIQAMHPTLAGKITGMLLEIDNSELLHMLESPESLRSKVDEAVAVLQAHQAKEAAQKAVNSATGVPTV

Compound | pIC50
Cc1cc(C(F)(F)F)nc(SCC(=O)Nc2nc(O)c(C)s2)n1 [N-(5-methyl-4-oxidanylidene-1,3-thiazol-2-yl)-2-[4-methyl-6-(trifluoromethyl)pyrimidin-2-yl]sulfanyl-ethanamide] | < 4.18
N#CC1C(=N)C2=C(N3CCCCC3)CCCC2C1(C#N)C#N (stereo not drawn) [3-Amino-4-piperidin-1-yl-5,6,7,7a-tetrahydro-indene-1,1,2-tricarbonitrile] | < 4.18
O=C(O)CSc1cc(O)n(-c2ccc(Cl)c(Cl)c2)c1O | < 4.18
CCOC(=O)CC1=C(C(=O)OCC)C(c2ccc(C)o2)C(C#N)C(=N)O1 (stereo not drawn) [ethyl 6-amino-5-cyano-2-(2-ethoxy-2-oxoethyl)-4-(5-methyl-2-furyl)-4H-pyran-3-carboxylate] | < 4.18
CCOc1cc(C2C3=C(CCCC3=O)N=C3CCCC(=O)C32)ccc1OCCO (stereo not drawn) [9-[3-ethoxy-4-(2-hydroxyethoxy)phenyl]-2,3,4,5,6,7,9,10-octahydroacridine-1,8-dione] | < 4.18
CCOC(=O)c1ccc(NC(=O)Cc2sc3ncnn3c2O)cc1 | < 4.18
COc1cc2c(cc1OC)C(c1ccccc1O)N(c1cc(O)n(-c3ccccc3)c1O)CC2 (stereo not drawn) | < 4.18
COc1ccc(NC(=O)Cc2sc3ncnn3c2O)cc1 [MLS000115464] | < 4.18

Next, values leading:

pIC50 | Compound
< 4.18 | Cc1ccc(NC(=O)Cc2sc(=O)n(-c3ccccc3)c2O)cc1
< 4.18 | O=C(Cc1sc(=O)n(-c2ccccc2)c1O)Nc1ccccc1 [2-(2,4-diketo-3-phenyl-thiazolidin-5-yl)-N-phenyl-acetamide]
< 4.18 | CC(C)C1=NC(=O)NC2CCCCC12 (stereo not drawn) [SMR000060291]
< 4.18 | COc1ccc(C2=Nc3nnnn3C(c3ccc(F)cc3)C2)cc1 (stereo not drawn) [SMR000108015]
< 4.18 | CCSc1sccc1C1C2=C(CCCC2=O)N(c2cccnc2)C(=N)C1C#N (stereo not drawn) [2-azanyl-4-(2-ethylsulfanylthiophen-3-yl)-5-oxidanylidene-1-pyridin-3-yl-4,6,7,8-tetrahydroquinoline-3-carbonitrile]
